Key:
IL-10 = assay: Measurement of human IL-10 amount in culture supernatant of MT2 cells with ELISA kit (Test 1); assay type: cell-based; details: 48±2 hours; for activity at 10 µM / activity at 20 µM / activity at 12.5 µM / activity at 25 µM: Homo sapiens, 48 h, DMSO control = 100%, read-out: % against control (IL-10 production)
Procedure: (§1) MT2 cells from human adult T-cell leukemia were used. Leukemia cells of human adult T-cell leukemia (ATL) express CD4 and CD25 molecules on the cell surface and are considered to be derived from Treg (Chen S. et al., International Immunology 18:269-277 (2005)). MT2 cells were used in experiments as models of Treg since the cells are CD4 positive, CD25 positive, and FOXP3 positive celles derived from ATL.
(§2) The example compounds (compounds 1-17) of the present invention were dissolved in dimethylsulfoxide (DMSO) to prepare each 50 mmol/L solution, which was preserved at −80° C.
The amount of IL-10 production in the control and the example compounds was measured to evaluate the inhibitory effect on IL-10 production of the example compounds of the present invention.
(1) MT2 cells are suspended in RPMI1640 medium (hereinafter referred to as “the medium”) supplemented with 10% fetal calf serum (FCS) and 1% penicillin/streptomycin (P/S) to give 3×10^5 cells/mL suspension, and 1 mL of the suspension was added to each well of a 24-well plate. […] The cell cultures were incubated 48±2 hours in a CO2 incubator (under a condition of 37° C., 5 CO2). DMSO was diluted 50-fold with the medium, and 20 μL of the diluent was added to the well to make a control of compounds 1-7. In addition, DMSO was diluted 50-fold with the medium, and 25.0 μL of the diluent was added to the well to make a control of compounds 8-17.
(2) A piece of the cell culture was sampled to count cells with a cell counter (BIO RAD TC-20). The cell culture was centrifuged at 300×g for 5 minutes and the supernatant was collected as a sample for IL-10 measurement. When not measured within a day, it was preserved in a freezer at −80° C.
(3) Human IL-10 ELISA kit II (BD OptEIA) was used on the measurement. The kit contains wells treated with anti-IL-10 antibody (8 wells/strip), Standard/Sample diluent, vials comprising freeze-dried IL-10 Standard (1280 pg/vial), ELISA diluent, 20× Wash Buffer, Detection antibody, Enzyme Concentrate, TMB One Step Substrate Reagent, Stop Solution, and cover sheets.
(4) To a vial containing IL-10 Standard was added […] Standard/Sample diluent, and the vial was stood at room temperature for 15 minutes to be dissolved (Standard sample stock solution 1L-10 concentration: 500 pg/mL).
(5) Standard samples in each concentration for making a standard curve were prepared as follows. Firstly, to 300 μL of the medium was added 300 μL of the standard sample stock solution, and the mixture was mixed with a Voltex mixer (250 pg/mL). Next, 300 μL of the standard sample of 250 pg/mL was added to 300 μL of the medium and the mixture was mixed with a Voltex mixer (125 pg/mL). The same procedures were successively repeated to prepare standard solutions of 62.5, 31.25, 15.625, and 7.8125 pg/mL. As 0 pg/mL standard solution, the medium was used.
(6) A kit containing wells treated with anti-IL-10 antibody (8 wells/strip) was warmed to room temperature and 50 μL of ELISA diluent in the kit was added into each well.
(7) To each well containing ELISA diluent, 100 μL of the standard samples of each concentration and each test sample (diluded 50-100 fold with medium) were added.
(8) After the wells were sealed with a cover sheet and gently tapped, they were left at room temperature for 2 hours.
(9) 20× Wash Buffer was diluted 20-fold with water to prepare 1× Wash Buffer.
(10) After the reaction was done for 2 hours, the solutions in each well were aspirated and washed 5 times with 300 μL of 1× Wash Buffer.
(11) After Enzyme Concentrate (4 μL per 8 wells) was added to Detection antibody (1 ml per 8 wells), the solution was mixed by a Vortex mixer and then a necessary amount of Working Detector was prepared.
(12) 100 μL of Working Detector was added to each well, covered with a cover sheet, and the wells were left at room temperature for an hour.
(13) After the reaction was done for an hour, the solutions in wells were aspirated and washed 7 times with 300 μL of 1× Wash Buffer. […]

CTLA-4 = assay: Intracellular staining of MT2 cells with fluorescence-labeled anti-CTLA-4 antibody and measurement by flow cytometry; assay type: cell-based, human; details: 48±2 hours; for Peak MFI of CTLA-4: isotype IgG2a subtracted, average of n=3
Procedure: as §1, §2
(1) MT2 cells were suspended in RPMI1640 medium (hereinafter referred to as “the medium”) supplemented with 10% fetal calf serum (FCS) and 1° penicillin/streptomycin (P/S) to give 3×10^5 cells/mL suspension and 3 mL of the suspension was added to each well of a 6-well plate. To each well were added 0.6 or 1.2 μL of the test compound solutions (compounds 1, 2, and 4), 0.75 or 1.5 μL of the test compound solution (compound 9), and 1.5 μL of the test compound solutions (compounds 8 and 10-17), and the cell cultures were incubated in a CO2 gas incubator (under 37° C., 5% CO2) and cultured for 48±2 hours. As a control of compound 1, 2 and 4, only 1.2 μL of DMSO was added to the well. In addition, as a control of compound 8-17, only 1.5 μL of DMSO was added to the well.
(2) A piece of the cell culture was sampled to count cells with a cell counter (BIO RAD TC-20). The cell culture was centrifuged at 300×g for 5 min, and the supernatant was removed. The residue was suspended in phosphate buffered saline (supplemented with 1% bovine serum albumin (BSA), without calcium and magnesium) (1% BSA/PBS) to adjust the concentration of cells to 5-10×10^6 cells/mL.
(3) To 5 ml tube, each 50 μL of the cell suspension was added.
(4) Foxp3/Transcription Factor Fix/Perm Concentrate (4×) (Cat. No. TNB-1020-L050) (Solution A) in FOXP3/Transcription Factor Staining kit (TONBO biosciences) was diluted with Foxp3/Transcription Factor Fix/Perm Diluent (1×) (Cat. No. TNB-1022-L160) (for dilution of Solution A) to prepare 1× Solution A.
(5) 1 mL of 1× Solution A was added to each tube and mixed by gentle pipetting. Subsequently, it was left at room temperature for 30 min, centrifuged at 300×g for […], and the supernatant was discarded.
(6) Flow Cytometry Perm Buffer (10×) (Cat. No. TNB-1213-L150) (Solution B) in the kit was diluted 10-fold with water to prepare 1× Solution B.
(7) 2 mL of 1× Solution B was added to the tube and centrifuged at 300×g for 5 min. The supernatant was discarded. 2 μL of 2% normal mouse serum/PBS was added to the tube and the tube was gently pipetted. Subsequently, it was left at room temperature for 15 min.
(8) In the CTLA-4 measurement, 20 μL of anti-CTLA-4 antibody (BECKMAN COULTER, CD152-PE clone BN13I M2282) or mouse IgG2a (BECKMAN COULTER, IgG2a (Mouse)-PE A09142) for the control was added to the tube and the tube was gently stirred. Subsequently, it was left in the dark at room temperature for 30 min, and 2 mL of the 1× Solution B was added thereto, the mixture was centrifuged at 300×g for 5 min, and the supernatant was discarded. 2 mL of the 1× Solution B was added to the tube again, the mixture was centrifuged at 300×g for 5 min, and the supernatant was discarded.
(9) Within 2 hours after the solution in the tube was suspended in 0.5 mL of 1% BSA/PBS, and the fluorescence at 577 nm was measured with 488 nm excitation with a flow cytometer (Sony: Cell Sorter SH800). The results were analyzed with software, FlowJo (Tree Star Inc.). The mean peak fluorescence intensity (MFI) of CTLA-4 and mean peak fluorescence intensity of isotype control IgG2a were calculated from histgrams of the measured fluorescence intensity and number of cells, and mean fluorescence intensity of IgG2a was subtracted from that of CTLA-4. Experiments were conducted in n=3, and the average values were shown.

[1] = Homo sapiens, 48 h, 25.0 μmol/L, DMSO control = 100%, read-out: % against control (CTLA-4 expression)

Compound | IL-10 (ng/10^6 cells) ± standard deviate (n = 3) (IL-10; 10 μmol/L) [ng/10^6 cells] | IL-10 (ng/10^6 cells) ± standard deviate (n = 3) (IL-10; 20 μmol/L) [ng/10^6 cells] | activity at 10 µM (IL-10; 10 μmol/L) [%] | activity at 20 µM (IL-10; 20 μmol/L) [%] | IL-10 (ng/10^6 cells) ± standard deviate (n = 3) (IL-10; 12.5 μmol/L) [ng/10^6 cells] | IL-10 (ng/10^6 cells) ± standard deviate (n = 3) (IL-10; 25.0 μmol/L) [ng/10^6 cells] | activity at 12.5 µM (IL-10; 12.5 μmol/L) [%] | activity at 25 µM (IL-10; 25.0 μmol/L) [%] | Peak MFI of CTLA-4 (CTLA-4; 25.0 μmol/L) | activity at 25 µM (CTLA-4; [1]) [%] | Peak MFI of CTLA-4 (CTLA-4; 12.5 μmol/L) | activity at 12.5 µM (CTLA-4; Homo sapiens, 48 h, 12.5 μmol/L, DMSO control = 100%, read-out: % against control (CTLA-4 expression)) [%]
COC(=O)C1=CN(CCc2c[nH]c3ccccc23)C(O)[C@H]2[C@@H]1C=CC2(O)CO (stereo partly drawn) [Compound 6] | 17.6 ± 0.7 | 15.2 ± 0.4 | 95.2 | 81.8 | – | – | – | – | – | – | – | –
COC(=O)C1=CN2CCc3c([nH]c4ccc(Br)cc34)[C@@H]2[C@@H]2[C@@H](C)[C@@H](O)C[C@H]12 [Compound 13] | – | – | – | – | 7.7 ± 0.6 | 4.2 ± 0.2 | 81.2 | 44 | 775 | 91.6 | – | –
COC(=O)C1=CN2CCc3c([nH]c4ccc(OCc5ccccc5)cc34)[C@@H]2[C@@H]2[C@@H](C)[C@@H](O)C[C@H]12 [Compound 15] | – | – | – | – | 6.5 ± 0.2 | 0.6 ± 0.4 | 59.3 | 5.1 | 284 | 37.7 | – | –
COC(=O)C1=CN2CCc3c([nH]c4ccc(Cl)cc34)[C@@H]2[C@@H]2[C@@H](C)[C@@H](O)C[C@H]12 [Compound 12] | – | – | – | – | 7.1 ± 0.2 | 4.8 ± 0.3 | 75.7 | 50.9 | 485 | 57.2 | – | –
COC(=O)C1=CN2CCc3c([nH]c4ccc(C)cc34)[C@@H]2[C@@H]2[C@@H](C)[C@@H](O)C[C@H]12 [Compound 14] | – | – | – | – | 7.4 ± 0.3 | 4.3 ± 1.0 | 67.7 | 39.2 | 450 | 53 | – | –
COC(=O)C1=CN(CCc2c[nH]c3ccccc23)C=C2[C@@H]1CC(OC)O[C@H]2C (stereo partly drawn) [Compound 3] | 14.8 ± 0.3 | 11.8 ± 0.3 | 80 | 63.7 | – | – | – | – | – | – | – | –
COC(=O)C1=CN2CCc3c([nH]c4ccc(O)cc34)[C@@H]2[C@@H]2[C@@H](C)[C@@H](O)C[C@H]12 [Compound 16] | – | – | – | – | 9.8 ± 0.3 | 8.6 ± 0.1 | 88.9 | 77.9 | 529 | 70.3 | – | –
COC(=O)C1=CN2CCc3c([nH]c4cc(Cl)ccc34)[C@@H]2[C@@H]2[C@@H](C)[C@@H](O)C[C@H]12 [Compound 9] | – | – | – | – | 11.1 ± 1.3 | 6.1 ± 1.3 | 67.7 | 37.5 | 539 | 52.8 | 778 | 76.3
COC(=O)C1=CN2CCc3c([nH]c4ccc(OC)cc34)[C@@H]2[C@@H]2[C@@H](C)[C@@H](O)C[C@H]12 [Compound 10] | – | – | – | – | 8.8 ± 0.4 | 5.6 ± 0.3 | 93.5 | 59.6 | 570 | 56.3 | – | –
COC(=O)C1=CN2CCc3c([nH]c4ccccc34)[C@@H]2[C@@]2(O)C(CO)=CC[C@H]12 [Compound 5] | 19.7 ± 0.2 | 14.9 ± 0.4 | 106 | 80.5 | – | – | – | – | – | – | – | –
CC1C(C=O)=C2CCOC(=O)C2=CN1CCc1c[nH]c2ccccc12 (stereo not drawn) [Compound 7] | 17.9 ± 0.6 | 15.4 ± 0.4 | 96.5 | 83.1 | – | – | – | – | – | – | – | –

From patent US10550120B2, “Indole alkaloid compound having immune checkpoint inhibitory action” (TOHOKU UNIVERSITY, priority 2016, dated 2020)
